Values of other authors as cited in US4127521A, “Novel octacosapeptides, intermediates therefor and pharmaceutical compositions and methods employing said octacosapeptides” (priority 1977, dated 1978).

Legend:
[1] = injected directly into the brain of the rat
[2] = test system: brain opiate receptor sites

Substance: H-Tyr-Gly-Gly-Phe-Met-OH [methionine enkephalin]
- analgesic activity [1]: weak analgesic agent of short duration
- binding to partially purified brain opiate receptor sites [2]: binds stereo-specifically
